Measured values published in ChEMBL document CHEMBL3351894, “Development and evaluation of ST-1829 based on 5-benzylidene-2-phenylthiazolones as promising agent for anti-leukotriene therapy” (Eur J Med Chem, 2015).
In brackets after ≈: the same amount, converted by molar mass.

How the values were obtained:
[1] = biological target: T1, Polyunsaturated fatty acid 5-lipoxygenase (Homo sapiens, UniProt P09917); test: Inhibition of 5-LO in human PMNL using arachidonic acid as substrate assessed as product formation incubated for 15 mins prior to substrate addition measured after 10 mins by HPLC analysis
T1 sequence (P09917 whole entry): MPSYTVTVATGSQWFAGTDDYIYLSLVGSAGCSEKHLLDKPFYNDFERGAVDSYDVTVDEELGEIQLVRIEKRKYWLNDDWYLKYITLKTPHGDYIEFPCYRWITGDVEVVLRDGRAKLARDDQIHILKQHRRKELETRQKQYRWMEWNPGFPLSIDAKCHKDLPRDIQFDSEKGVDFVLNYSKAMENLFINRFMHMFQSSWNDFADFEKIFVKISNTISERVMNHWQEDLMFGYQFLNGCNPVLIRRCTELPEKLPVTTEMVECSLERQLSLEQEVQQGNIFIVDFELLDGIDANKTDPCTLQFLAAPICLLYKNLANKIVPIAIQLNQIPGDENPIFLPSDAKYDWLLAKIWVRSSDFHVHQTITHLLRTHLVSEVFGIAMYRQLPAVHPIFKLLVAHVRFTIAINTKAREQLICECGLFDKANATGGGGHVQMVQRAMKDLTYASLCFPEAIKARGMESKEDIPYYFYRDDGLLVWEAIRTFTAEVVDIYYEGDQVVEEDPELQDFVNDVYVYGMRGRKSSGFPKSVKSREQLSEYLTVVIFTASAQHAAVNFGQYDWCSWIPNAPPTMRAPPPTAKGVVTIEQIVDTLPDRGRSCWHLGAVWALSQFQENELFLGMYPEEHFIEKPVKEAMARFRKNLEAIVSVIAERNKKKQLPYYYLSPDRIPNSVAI

[2] = biological target: T1, Polyunsaturated fatty acid 5-lipoxygenase; test: Inhibition of 5-LO in human PMNL S100 extract using arachidonic acid as substrate incubated for 15 mins prior to substrate addition measured after 10 mins by HPLC analysis
[3] = Solubility of the compound in PBS at pH 7.4 at RT; assay type: physicochemical
[4] = Solubility of the compound in DMSO at RT; assay type: physicochemical

`COc1ccc(C(=C2SC(c3ccc(C)cc3)=NC2=O)c2ccc(OC)cc2)cc1` gave an IC50 [1] of 8550 nM and an IC50 [2] of 6150 nM.
With `Cc1ccc(C2=NC(=O)/C(=C/c3[nH]cnc3C)S2)cc1` the IC50 [1] was 14900 nM and the IC50 [2] was 6040 nM.
Molecule `COc1ccc(/C=C2\C=C(c3ccc(C)cc3)NC2=O)cc1` has an IC50 [1] of 10300 nM and an IC50 [2] of 11800 nM.
`Cc1ccc(C2=NC(=O)/C(=C/c3ccc(OC(=O)N4CCOCC4)cc3)S2)cc1` gave a solubility [3] of 0.05 mM (≈ 20.4 µg/mL), an IC50 [1] of 740 nM and a solubility [4] of 10 mM (≈ 4080 µg/mL). It also gave an IC50 [2] of 330 nM.
For `Cc1ccc(C2=NC(=O)/C(=C/c3ccc(N)cc3)S2)cc1`, the IC50 [1] was 1330 nM and the IC50 [2] was 580 nM.
Work on `Cc1ccc(C2=NC(=O)/C(=C/c3ncc[nH]3)S2)cc1` yielded an IC50 [1] of 6090 nM and an IC50 [2] of 2690 nM.
`Cc1ccc(-c2nc(O)c(C=C3CCCCC3)s2)cc1` gave an IC50 [1] of 790 nM and an IC50 [2] of 350 nM.
With `CC(=O)c1ccc(/C=C2\SC(c3ccc(C)cc3)=NC2=O)cc1` the IC50 [1] was 580 nM and the IC50 [2] was 160 nM.
With `COc1ccc(/C=C2\OC(c3ccc(C)cc3)=NC2=O)cc1` the IC50 [1] was 10500 nM and the IC50 [2] was 1860 nM.
For `COc1ccc(NC2(OC)SC(c3ccc(C)cc3)=NC2=O)cc1` (centres undefined), the IC50 [1] was > 30000 nM and the IC50 [2] was > 30000 nM.
For `COc1ccc(-c2sc(-c3ccc(C)cc3)nc2O)cc1`, the solubility [3] was 0.05 mM (≈ 14.9 µg/mL), the IC50 [1] was 430 nM and the solubility [4] was 50 mM (≈ 14900 µg/mL). For the same molecule, the IC50 [2] was 170 nM.
For `Cc1ccc(C2=NC(=O)/C(=C/c3cccs3)S2)cc1`, the IC50 [1] was 980 nM and the IC50 [2] was 860 nM.
`Cc1ccc(C2=NC(=O)/C(=C/c3ccc[nH]3)S2)cc1` showed an IC50 [1] of 1580 nM and an IC50 [2] of 8020 nM.
With `COc1ccc(/C=C2\N=C(c3ccc(C)cc3)OC2=O)cc1` the IC50 [1] was > 30000 nM and the IC50 [2] was > 30000 nM.
Work on `COc1ccc(/C=C2\SC(c3cccnc3)=NC2=O)cc1` yielded an IC50 [1] of 2660 nM and an IC50 [2] of 960 nM.
For `COc1ccc(/C=C2\SC(c3ccc(C)cc3)N(C)C2=O)cc1` (centres undefined), the IC50 [1] was 940 nM and the IC50 [2] was > 30000 nM.
In the case of `COc1ccc(/C=C2\C=C(c3ccc(C)cc3)OC2=O)cc1`, the IC50 [1] is reported as > 30000 nM and the IC50 [2] is reported as > 30000 nM.
For `COC(=O)c1ccc(/C=C2\SC(c3ccc(C)cc3)=NC2=O)cc1`, the IC50 [1] was 690 nM and the IC50 [2] was 160 nM.
For `COC1CCC(=Cc2sc(-c3ccc(C)cc3)nc2O)CC1` (centres undefined), the IC50 [1] was 1560 nM and the IC50 [2] was 590 nM.
With `COc1ccc(/C=C/C=C2\SC(c3ccc(C)cc3)=NC2=O)cc1` the IC50 [1] was 220 nM and the IC50 [2] was 350 nM.
`COc1ccc(/C=C2\SC(c3cnccn3)=NC2=O)cc1` gave an IC50 [1] of 2870 nM and an IC50 [2] of 300 nM.
Work on `Cc1ccc(C2=NC(=O)/C(=C/c3ccc(S(C)(=O)=O)cc3)S2)cc1` yielded an IC50 [1] of 5290 nM and an IC50 [2] of 190 nM.
For `Cc1ccc(C2=NC(=O)/C(=C/c3ccncc3)S2)cc1`, the IC50 [1] was 2190 nM and the IC50 [2] was 330 nM.
For `Cc1ccc(C2=NC(=O)/C(=C/c3c[nH]c4ccccc34)S2)cc1`, the IC50 [1] was 1070 nM and the IC50 [2] was > 3000 nM.
In the case of `COc1ccc(/C=C2\N=C(c3ccc(C)cc3)NC2=O)cc1`, the IC50 [1] is reported as 1950 nM and the IC50 [2] is reported as 7800 nM.
In the case of `COc1ccc(/C=C2/SC(=S)N(c3ccc(C)cc3)C2=O)cc1`, the IC50 [1] is reported as > 30000 nM and the IC50 [2] is reported as > 30000 nM.
`Cc1ccc(C2=NC(=O)/C(=C/c3ccc(C(=O)O)cc3)S2)cc1` gave an IC50 [1] of 8360 nM and an IC50 [2] of 1460 nM.
In the case of `COc1ccc(/C=C2\S/C(=N/c3ccc(C)cc3)NC2=O)cc1`, the IC50 [1] is reported as 2900 nM and the IC50 [2] is reported as > 30000 nM.
With `COC(=O)/C=C/c1ccc(/C=C2\SC(c3ccc(C)cc3)=NC2=O)cc1` the IC50 [1] was 3610 nM and the IC50 [2] was 180 nM.
With `Cc1ccc(C2=NC(=O)/C(=C/c3cccnc3)S2)cc1` the IC50 [1] was 1240 nM and the IC50 [2] was 280 nM.
With `Cc1ccc(C2=NC(=O)/C(=C/C34CC5CC(CC(C5)C3)C4)S2)cc1` the IC50 [1] was 410 nM and the IC50 [2] was 120 nM.
In the case of `COc1ccc(/C=C2\SC(c3ccncc3)=NC2=O)cc1`, the IC50 [1] is reported as 2990 nM and the IC50 [2] is reported as 440 nM.
In the case of `COc1ccc(/N=C2\SC(c3ccc(C)cc3)=NC2=O)cc1`, the IC50 [1] is reported as 10300 nM and the IC50 [2] is reported as 8220 nM.
In the case of `COc1ccc(-c2sc(-c3ccc(C)cc3)nc2C)cc1`, the IC50 [1] is reported as 1500 nM and the IC50 [2] is reported as > 30000 nM.
For `COc1ccc(/C=C2\SC(c3ccc[n+](C)c3)=NC2=O)cc1`, the IC50 [1] was > 30000 nM and the IC50 [2] was 4620 nM.
